Assay results published in US20110015068A1, “Herbicidal Compositions Comprising Pyroxasulfone V” (BASF SE, priority 2008, published 2011).
Like-named read-outs stand apart in the source and are kept apart here.

Tests used:
Chenopodium album = assay: post-emergence greenhouse test, CHEAL; assay type: in vivo; conditions: for inhibition at 13 g/ha / inhibition at 50 g/ha: Chenopodium album, read-out: observed % activity; for inhibition at 13 g/ha: 13 g ai/ha; for inhibition at 50 g/ha: 50 g ai/ha
Source text: (§1) For the post-emergence treatment, the test plants were first grown to a height of 3 to 20 cm, depending on the plant habit, and only then treated. Here, the herbicidal compositions were suspended or emulsified in water as distribution medium and sprayed using finely distributing nozzles.
(§2) The respective herbicides A and/or safener were formulated as 10% by weight strength suspension concentrate and introduced to the spray liquor with the amount of solvent system used for applying the active compound. Herbicide B and/or safener were used as commercially available formulations and introduced to the spray liquor with the amount of solvent system used for applying the active compound. In the examples, the solvent used was water.
(§3) The test period extended over 21 days. During this time, the plants were tended, and their response to the treatments with active compound was evaluated.
(§4) The evaluation for the damage caused by the chemical compositions was carried out using a scale from 0 to 100%, compared to the untreated control plants. Here, 0 means no damage and 100 means complete destruction of the plants.

Echinochloa crus-galli = assay: post-emergence greenhouse test, ECHCG; assay type: in vivo; conditions: for inhibition at 13 g/ha: Echinochloa crus-galli, 13 g ai/ha, read-out: observed % activity
Source text: as §1, §2, §3, §4

harmful plants = conditions: known from Y. Yamaji et al., 2006; cited from earlier work
Xanthium strumarium = assay: post-emergence greenhouse test, XANST; assay type: in vivo; conditions: Xanthium strumarium, read-out: observed % activity; for inhibition at 13 g/ha: 13 g ai/ha; for inhibition at 25 g/ha: 25 g ai/ha; for inhibition at 100 g/ha: 100 g ai/ha
Source text: as §1, §2, §3, §4

Galium aparine = assay: pre-emergence greenhouse test, GALAP; assay type: in vivo; conditions: Galium aparine, read-out: observed % activity; for inhibition at 25 g/ha: 25 g ai/ha; for inhibition at 50 g/ha: 50 g ai/ha
Source text: (§5) For the pre-emergence treatment, directly after sowing the active compounds, which had been suspended or emulsified in water, were applied by means of finely distributed nozzles. The containers were irrigated gently to promote germination and growth and subsequently covered with transparent plastic hoods until plant had rooted. This cover caused uniform germination of the tests plants, unless this was adversely affected by active compounds.
as §2, §3, §4

Sorghum halepense = assay: pre-emergence greenhouse test, SORHA; assay type: in vivo; conditions: Sorghum halepense, 25 g ai/ha, read-out: observed % activity
Source text: as §5, §2, §3, §4

Polygonum convolvulus = assay: post-emergence greenhouse test, POLCO; assay type: in vivo; conditions: for inhibition at 25 g/ha / inhibition at 50 g/ha / inhibition at 100 g/ha: Fallopia convolvulus, read-out: observed % activity; for inhibition at 25 g/ha: 25 g ai/ha; for inhibition at 50 g/ha: 50 g ai/ha; for inhibition at 100 g/ha: 100 g ai/ha
Source text: as §1, §2, §3, §4

Cn1nc(C(F)(F)F)c(CS(=O)(=O)C2=NOC(C)(C)C2)c1OC(F)F [pyroxasulfone, 3-[5-(difluoromethoxy)-1-methyl-3-(trifluoromethyl)pyrazol-4-ylmethylsulfonyl]-4,5-dihydro-5,5-dimethyl-1,2-oxazole]
observed activity in % destruction (Chenopodium album; 12.5 g ai/ha, 20 DAT, Table 3): 35%
observed activity in % destruction (Chenopodium album; 25 g ai/ha, 20 DAT, Table 4): 45%
inhibition at 13 g/ha (Chenopodium album; 192 h, 8 DAT): 35%
inhibition at 50 g/ha (Chenopodium album; 192 h, 8 DAT): 60%
inhibition at 13 g/ha (Chenopodium album; 480 h, 20 DAT): 25%
inhibition at 50 g/ha (Chenopodium album; 480 h, 20 DAT): 65%
observed activity in % destruction (Echinochloa crus-galli; 50 g ai/ha, 20 DAT, Table 3): 80%
inhibition at 13 g/ha (Echinochloa crus-galli; 192 h, 8 DAT): 25%
inhibition at 13 g/ha (Echinochloa crus-galli; 480 h, 20 DAT): 80%
post-emergence activity (harmful plants): poor
inhibition at 13 g/ha (Xanthium strumarium; 192 h, 8 DAT): 0%
inhibition at 25 g/ha (Xanthium strumarium; 192 h, 8 DAT): 20%
inhibition at 100 g/ha (Xanthium strumarium; 192 h, 8 DAT): 25%
inhibition at 13 g/ha (Xanthium strumarium; 480 h, 20 DAT): 0%
inhibition at 25 g/ha (Xanthium strumarium; 480 h, 20 DAT): 25%
inhibition at 100 g/ha (Xanthium strumarium; 480 h, 20 DAT): 55%
inhibition at 25 g/ha (Galium aparine; 192 h, 8 DAT): 50%
inhibition at 50 g/ha (Galium aparine; 192 h, 8 DAT): 70%
inhibition at 25 g/ha (Galium aparine; 480 h, 20 DAT): 80%
inhibition at 50 g/ha (Galium aparine; 480 h, 20 DAT): 90%
inhibition at 25 g/ha (Sorghum halepense; 192 h, 8 DAT): 75%
inhibition at 25 g/ha (Sorghum halepense; 480 h, 20 DAT): 95%
observed activity in % destruction (Polygonum convolvulus; 12.5 g ai/ha, 20 DAT, Table 3): 35%
inhibition at 25 g/ha (Polygonum convolvulus; 192 h, 8 DAT): 30%
inhibition at 50 g/ha (Polygonum convolvulus; 192 h, 8 DAT): 50%
inhibition at 100 g/ha (Polygonum convolvulus; 192 h, 8 DAT): 50%
inhibition at 25 g/ha (Polygonum convolvulus; 480 h, 20 DAT): 50%
inhibition at 50 g/ha (Polygonum convolvulus; 480 h, 20 DAT): 50%
inhibition at 100 g/ha (Polygonum convolvulus; 480 h, 20 DAT): 55%
